Source: patent publication US20250122191A1, “COMPOUNDS AS BCL-2 INHIBITORS” (Fochon Biosciences, Ltd, priority 2021, published 2025)

Experiments:
Toledo cells = experiment: Cell proliferation assay (MTS), Toledo cells; type: cell-based; conditions: Homo sapiens, 72 h
Experimental: MTS testing kit was purchased from Promega (Madison, WI, USA). The RPMI-1640, Fetal bovine serum and Penicillin-Streptomycin were purchased from BI (Biological Industries, Beit Haemek, Israel). Dimethyl sulfoxide (DMSO) was purchased from Sigma (St. Louis., MO, USA). Toledo (ATCC catalog #: CRL-2631) cells were cultured in RPMI-1640 supplemented with Penicillin-Streptomycin and 10% FBS.
To investigate whether a compound is able to inhibit the activity of BCL-2 in cells, a mechanism-based assay using Toledo lines was developed. In this assay, the inhibition of BCL-2 was reflected by the inhibition of cell proliferation of Toledo cells. Cells were plated into 96-well plates at the optimized cell density of 30000 cells/well. Plates were incubated at 37° C., with 5% CO2 for 4 h. Compounds were serially diluted and added to the plates with the final concentrations of 10000, 3333.3, 1111.1, 370.4, 123.5, 41.2, 13.7, 4.6 and 1.5 nM. Plates were incubated at 37° C., with 5% CO2 for 72 h. 20 μl MTS was added into each well and the plates were incubated at 37° C., with 5% CO2 for exactly 2 h. The absorbance was measured by a microplate reader at 490 nm. IC50 was calculated using GraphPad Prism 5.0 software.

RS4;11-BCL-2 G101V cells = experiment: Cell proliferation assay (MTS), RS4;11-BCL-2 G101V engineered cells; type: cell-based; conditions: Homo sapiens, 120 h, read-out: RS4, 11 BCL2-G101V IC50
Text: MTS testing kit was purchased from Promega (Madison, WI, USA). The RPMI-1640, Fetal bovine serum and Penicillin-Streptomycin were purchased from BI (Biological Industries, Beit Haemek, Israel). Puromycin was purchased from Beyotime (shanghai, China). Dimethyl sulfoxide (DMSO) was purchased from Sigma (St. Louis., MO, USA). RS4;11-BCL-2 G101V (Cobioer Lot. #: CBD2021063013P4), RS4;11-BCL-2 D103E (Cobioer Lot. #: CBD2021063013P4), RS4;11-BCL-2 D103Y (Cobioer Lot. #: CBD2022012101P4) and RS4;11-BCL-2 F104L (Cobioer Lot. #: CBD2021063014P4) cells were cultured in RPMI1640 supplemented with 1 ug/mL puromycin, 100 U/mL Penicillin-Streptomycin and 10% FBS.
To investigate whether a compound is able to inhibit the activity of BCL-2 mutation in cells, a mechanism-based assay using engineered cell lines stably overexpressing BCL-2 mutation (RS4;11-BCL-2 G101V, RS4;11-BCL-2 D103E, RS4;11-BCL-2 D103Y, and RS4;11-BCL-2 F104L) was developed. In this assay, the inhibition of BCL-2 mutation was reflected by the inhibition of cell proliferation of engineered RS4;11 cells. Cells were plated into 96-well plates at optimized cell density (RS4;11-BCL-2 G101V: 5000 cells/well; RS4;11-BCL-2 D103E: 7500 cells/well; RS4;11-BCL-2 D103Y: 7500 cells/well; RS4;11-BCL-2 F104L: 5000 cells/well). Plates were incubated at 37° C., with 5% CO2 for 4 h (RS4;11-BCL-2 G101V, RS4;11-BCL-2 F104L) and 24 h (RS4;11-BCL-2 D103E, RS4;11-BCL-2 D103Y), respectively. Compounds were serially diluted and added to the plates with the final concentrations of 10000, 3333.3, 1111.1, 370.4, 123.5, 41.2, 13.7, 4.6 and 1.5 nM. Plates were incubated at 37° C., with 5% CO2 for 120 h (RS4; 11-BCL-2 G101V, RS4; 11-BCL-2 F104L) and 72 h (RS4;11-BCL-2 D103E, RS4;11-BCL-2 D103Y), respectively. 20 μl MTS was added into each well and the plates were incubated at 37° C., with 5% CO2 exactly for 2 h. The absorbance was measured by a microplate reader at 490 nm. IC50 values were calculated using GraphPad Prism 8.0 software.

IC50 (RS4;11-BCL-2 G101V cells) [nM]	SMILES	IC50 (Toledo cells) [nM]
	COc1cc(CN2CCC(N3CC4(CCN(c5ccc(C(=O)NS(=O)(=O)c6cnc(NC[C@H]7CC[C@](C)(O)CC7)c([N+](=O)[O-])c6)c(Oc6cc7c(F)c[nH]c7nc6OC)c5)CC4)C3)C(c3ccccc3C(C)C)C2)ccc1C1CC1 (some centres unmarked) [Example 24, 4-(2-(1-(4-cyclopropyl-3-methoxybenzyl)-3-(2-isopropylphenyl)piperidin-4-yl)-2,7-diazaspiro[3.5]nonan-7-yl)-2-((3-fluoro-6-methoxy-1H-pyrrolo[2,3-b]pyridin-5-yl)oxy)-N-((6-((((1r,4r)-4-hydroxy-4-methylcyclohexyl)methyl)amino)-5-nitropyridin-3-yl)sulfonyl)benzamide]	1
	CCOc1nc2[nH]cc(F)c2cc1Oc1cc(N2CCC3(CC2)CC(N2CCN(Cc4ccc(OC)c(F)c4)C[C@H]2c2ccccc2C(C)C)C3)ccc1C(=O)NS(=O)(=O)c1cnc(NC[C@H]2CC[C@](C)(O)CC2)c([N+](=O)[O-])c1 [Example 98, 2-((6-ethoxy-3-fluoro-1H-pyrrolo[2,3-b]pyridin-5-yl)oxy)-4-(2-((R)-4-(3-fluoro-4-methoxybenzyl)-2-(2-isopropylphenyl)piperazin-1-yl)-7-azaspiro[3.5]nonan-7-yl)-N-((6-((((1r,4r)-4-hydroxy-4-methylcyclohexyl)methyl)amino)-5-nitropyridin-3-yl)sulfonyl)benzamide]	1
	CCOc1nc2[nH]cc(F)c2cc1Oc1cc(N2CCC3(CC2)CC(N2CCN(C(C)C)C[C@H]2c2ccccc2C(C)C)C3)ccc1C(=O)NS(=O)(=O)c1cnc(NC[C@H]2CC[C@](C)(O)CC2)c([N+](=O)[O-])c1 [Example 100, 2-((6-ethoxy-3-fluoro-1H-pyrrolo[2,3-b]pyridin-5-yl)oxy)-N-((6-((((1r,4r)-4-hydroxy-4-methylcyclohexyl)methyl)amino)-5-nitropyridin-3-yl)sulfonyl)-4-(2-((R)-4-isopropyl-2-(2-isopropylphenyl)piperazin-1-yl)-7-azaspiro[3.5]nonan-7-yl)benzamide]	1
	CCOc1nc2[nH]cc(F)c2cc1Oc1cc(N2CCC3(CC2)CC(N2CCN(Cc4cc(F)c(OC)c(F)c4)C[C@H]2c2ccccc2C(C)C)C3)ccc1C(=O)NS(=O)(=O)c1cnc(NC[C@H]2CC[C@](C)(O)CC2)c([N+](=O)[O-])c1 [Example 108, 4-(2-((R)-4-(3,5-difluoro-4-methoxybenzyl)-2-(2-isopropylphenyl)piperazin-1-yl)-7-azaspiro[3.5]nonan-7-yl)-2-((6-ethoxy-3-fluoro-1H-pyrrolo[2,3-b]pyridin-5-yl)oxy)-N-((6-((((1r,4r)-4-hydroxy-4-methylcyclohexyl)methyl)amino)-5-nitropyridin-3-yl)sulfonyl)benzamide]	1
1	COc1ccc(CN2CCN(C3CC4(CCN(c5ccc(C(=O)NS(=O)(=O)c6cnc(NC[C@H]7CC[C@](C)(O)CC7)c([N+](=O)[O-])c6)c(Oc6cnc7[nH]cc(F)c7c6)c5)CC4)C3)[C@H](c3ccccc3C(C)C)C2)nc1 [Example 256, 2-((3-fluoro-1H-pyrrolo[2,3-b]pyridin-5-yl)oxy)-N-((6-((((1r,4r)-4-hydroxy-4-methylcyclohexyl)methyl)amino)-5-nitropyridin-3-yl)sulfonyl)-4-(2-((R)-2-(2-isopropylphenyl)-4-((5-methoxypyridin-2-yl)methyl)piperazin-1-yl)-7-azaspiro[3.5]nonan-7-yl)benzamide]	
1	COc1nc2[nH]cc(F)c2cc1Oc1cc(N2CCC3(CC2)CC(N2CCN(CC4CCOCC4)C[C@H]2c2ccccc2C(C)C)C3)ccc1C(=O)NS(=O)(=O)c1cnc(NC[C@H]2CC[C@](C)(O)CC2)c([N+](=O)[O-])c1 [Example 317, 2-((3-fluoro-6-methoxy-1H-pyrrolo[2,3-b]pyridin-5-yl)oxy)-N-((6-((((1r,4r)-4-hydroxy-4-methylcyclohexyl)methyl)amino)-5-nitropyridin-3-yl)sulfonyl)-4-(2-((R)-2-(2-isopropylphenyl)-4-((tetrahydro-2H-pyran-4-yl)methyl)piperazin-1-yl)-7-azaspiro[3.5]nonan-7-yl)benzamide]	
1	COc1nc2[nH]cc(F)c2cc1Oc1cc(N2CCC3(CC2)CC(N2CCN(C4CCOCC4)C[C@H]2c2ccccc2C(C)C)C3)ccc1C(=O)NS(=O)(=O)c1cnc(NC[C@H]2CC[C@](C)(O)CC2)c([N+](=O)[O-])c1 [Example 319, 2-((3-fluoro-6-methoxy-1H-pyrrolo[2,3-b]pyridin-5-yl)oxy)-N-((6-((((1r,4r)-4-hydroxy-4-methylcyclohexyl)methyl)amino)-5-nitropyridin-3-yl)sulfonyl)-4-(2-((R)-2-(2-isopropylphenyl)-4-(tetrahydro-2H-pyran-4-yl)piperazin-1-yl)-7-azaspiro[3.5]nonan-7-yl)benzamide]	
1	CC(C)c1ccccc1[C@@H]1CN(C2CCC(O)CC2)CCN1C1CC2(CCN(c3ccc(C(=O)NS(=O)(=O)c4cnc(NC[C@H]5CC[C@](C)(O)CC5)c([N+](=O)[O-])c4)c(Oc4cnc5[nH]cc(F)c5c4)c3)CC2)C1 (stereo partly drawn) [Example 333, 2-((3-fluoro-1H-pyrrolo[2,3-b]pyridin-5-yl)oxy)-N-((6-((((1r,4r)-4-hydroxy-4-methylcyclohexyl)methyl)amino)-5-nitropyridin-3-yl)sulfonyl)-4-(2-((R)-4-(4-hydroxycyclohexyl)-2-(2-isopropylphenyl)piperazin-1-yl)-7-azaspiro [3.5]nonan-7-yl)benzamide]	
1	CC(C)c1ccccc1[C@@H]1CN(Cc2ccc3c(c2)OC(F)(F)O3)CCN1C1CC2(CCN(c3ccc(C(=O)NS(=O)(=O)c4cnc(NC[C@H]5CC[C@](C)(O)CC5)c([N+](=O)[O-])c4)c(Oc4cnc5[nH]cc(F)c5c4)c3)CC2)C1 [Example 352, 4-(2-((R)-4-((2,2-difluorobenzo[d][1,3]dioxol-5-yl)methyl)-2-(2-isopropylphenyl)piperazin-1-yl)-7-azaspiro[3.5]nonan-7-yl)-2-((3-fluoro-1H-pyrrolo [2,3-b]pyridin-5-yl)oxy)-N-((6-((((1r,4r)-4-hydroxy-4-methylcyclohexyl)methyl)amino)-5-nitropyridin-3-yl)sulfonyl)benzamide]	
1	COc1ncc(CN2CCN(C3CC4(CCN(c5ccc(C(=O)NS(=O)(=O)c6cnc(NC[C@H]7CC[C@](C)(O)CC7)c([N+](=O)[O-])c6)c(Oc6cc7c(F)c[nH]c7nc6OC)c5)CC4)C3)[C@H](c3ccccc3C(C)C)C2)cn1 [Example 359, 2-((3-fluoro-6-methoxy-1H-pyrrolo[2,3-b]pyridin-5-yl)oxy)-N-((6-((((1r,4r)-4-hydroxy-4-methylcyclohexyl)methyl)amino)-5-nitropyridin-3-yl)sulfonyl)-4-(2-((R)-2-(2-isopropylphenyl)-4-((2-methoxypyrimidin-5-yl)methyl)piperazin-1-yl)-7-azaspiro[3.5]nonan-7-yl)benzamide]	
1	COc1ncc(CN2CCN(C3CC4(CCN(c5ccc(C(=O)NS(=O)(=O)c6cnc(NC[C@H]7CC[C@](C)(O)CC7)c([N+](=O)[O-])c6)c(Oc6cnc7[nH]cc(F)c7c6)c5)CC4)C3)[C@H](c3ccccc3C(C)C)C2)cn1 [Example 360, 2-((3-fluoro-1H-pyrrolo[2,3-b]pyridin-5-yl)oxy)-N-((6-((((1r,4r)-4-hydroxy-4-methylcyclohexyl)methyl)amino)-5-nitropyridin-3-yl)sulfonyl)-4-(2-((R)-2-(2-isopropylphenyl)-4-((2-methoxypyrimidin-5-yl)methyl)piperazin-1-yl)-7-azaspiro[3.5]nonan-7-yl)benzamide]	
